How the values were obtained:
[1] = test system: human oral cancer cell strain KB; assay: MTT cytotoxicity on human tumor cell strains in vitro; type: cell-based; details: 48 hours
Experimental: (§1) MTT method was employed to test the cytotoxic effect caused by the compound on human tumor cell stains in vitro. Specific steps are as follows:
(§2) The tumor cells (human poorly differentiated gastric cancer cell stain BGC-823, human breast cancer cell strain Bcap37, human oral cancer cell strain KB) was cultured in a 10% calf serum, inoculated into a 96-well plate (2×10^5 cells per well) at 37° C. in an incubator with 5% CO2. The cis-3-hydroxy-acrylic acid diammine platinum (II) was dissolved in DMSO to obtain a solution with a concentration of 10 mg/ml. The solution was diluted to the required concentration with a phosphate buffer, and then added into the wells of the 96-well plate respectively, each concentration was for two wells, 10 μl per well, therefore, each concentration has two parallel tests. DMSO was diluted accordingly in a gradient manner and added into the wells of the 96-well plate as controls.
(§3) After the 96-well plate was kept at 37° C. in the incubator with 5% CO2 for 48 hours, 20 μl 5 mg/ml MTT solution was added into per well. Then the 96-well plate were further kept for 3-4 hours in the incubator at the same temperature. 100 μl solvent was added into per well and the 96-well plate was kept warm in the incubator overnight to make the generated formazan crystals dissolve sufficiently. The light absorption value at 492 nm was determined.
(§4) A relative survival rate of cells was calculated according to the light absorption value after the treatment of the compound. The calculation formula is as follows: […]
(§5) The IC50 of the compound against each kind of tumor cells was calculated though software.

[2] = test system: human breast cancer cell strain Bcap37; assay: as above; type: cell-based; details: 48 hours
Experimental: as §1, §2, §3, §4, §5

[3] = test system: human poorly differentiated gastric cancer cell stain BGC-823; assay: as above; type: cell-based; details: BGC-823, MTT, 48 hours
Experimental: as §1, §2, §3, §4, §5

[4] = water-solubility at room temperature
[5] = body weight of ICR mice with transplanted S180 tumor; type: in vivo
Experimental: (§6) 32 ICR mice, male, weight 18-20 g, were supplied by Sippr/Bk Laboratory Animals Ltd, certification: SCXK (shanghai) 2008-2016.
(§7) The ascites of two vigorous growing ICR mice with S180 ascites tumor was extracted under a sterile condition, diluted 6 times with saline water, axilla subcutaneously inoculated with a dosage of 0.2 ml per mouse. The mice were randomly divided into four groups the next day, 8 for each group.
(§8) The groups were blank control group, SIPI-601 60 mg/kg iv group (administered once every three days), SIPI-601 120 mg/kg iv group (administered once every six days), Oxaliplatin 9 mg/kg iv group (administered once every other day).
(§9) The mice were administered the second day after inoculation. After the treatment, the survived animals were euthanatized, the tumors were taken and weighed to calculate anti-tumor rate.

transplanted S180 tumor = assay: anti-tumor rate in ICR mice with transplanted S180 tumor; type: in vivo
Experimental: The model of ICR mice with transplanted 5180 sarcoma in vivo was used to determine the anticancer effect of the compound. Specific steps are as follows:
Samples: cis-3-hydroxy-acrylic acid diammine platinum (II), serial number: SIPI-601.
Positive control: Oxaliplatin for injection, Jiangsu Hengrui Medicine Co., Ltd, lot number: 13082811, 50 mg per bottle.
Samples: SIPI-601, which was dissolved by a 10% glucose injection.
Positive control: Oxaliplatin for injection, which was dissolved by a 10% glucose injection.
as §6
Tumor cell trains: two ICR mice with S180 ascites tumor, passage cultured by pharmacological office, Shanghai State Institute of Pharmaceutical Industry (SIPI).
as §7, §8, §9

[6] = 60 mg/kg iv, once every three days
[7] = 120 mg/kg iv, once every six days
[8] = 9 mg/kg iv, once every other day

| Compound | IC50 [1] [µg/mL] | IC50 [2] [µg/mL] | IC50 [3] [µg/mL] | water-solubility [4] | The final body weight after the removal of tumor [5, 6] [g] | The final body weight after the removal of tumor [5, 7] [g] | The anti-tumor rate (transplanted S180 tumor; [6]) [%] | The anti-tumor rate (transplanted S180 tumor; [7]) [%] | The final body weight after the removal of tumor [5, 8] [g] | The anti-tumor rate (transplanted S180 tumor; [8]) [%] |
| --- | --- | --- | --- | --- | --- | --- | --- | --- | --- | --- |
| cis-3-hydroxy-acrylic acid diammine platinum (II) [SIPI-601] | 33.94 | 21.58 | 2.28 | greater than 25 mg/mL | 22.46 | 20.34 | 64.39 | 66.83 |  |  |
| O=C1[O][Pt]2([NH][C@@H]3CCCC[C@H]3[NH]2)[O]C1=O [Oxaliplatin, reference compound] |  |  |  |  |  |  |  |  | 19.92 | 62.42 |
